Article PMC3534778 (European journal of pharmacology, 2012)
“And” between values parts separate entries of the source, which are not always exact repeats. Equal values may be shown once. “Also recorded” adds a separate entry of the source. Read-outs that look alike come from different tables or passages of the source.

How the values were obtained:
[1] = target: rat α3β4-nicotinic acetylcholine receptor (Rattus norvegicus, UniProt P04757+P12392); format: cell-based; conditions: read-out: IC50, inhibition of (S)-nicotine-induced whole-cell current
[2] = target: rat α7-nicotinic acetylcholine receptor (Rattus norvegicus, UniProt Q05941); format: cell-based
[3] = human, in vivo; cited from earlier work
[4] = target: α7-nicotinic acetylcholine receptor (Rattus norvegicus, UniProt Q05941); format: binding
[5] = target: α4β2-nicotinic acetylcholine receptor (Homo sapiens, UniProt P17787+P43681); test: Acetylcholine-evoked currents in α4β2-nicotinic acetylcholine receptor; format: cell-based
NMDA receptor = format: binding, rat

rat α7-nicotinic acetylcholine receptor, sequence (Q05941 23-502): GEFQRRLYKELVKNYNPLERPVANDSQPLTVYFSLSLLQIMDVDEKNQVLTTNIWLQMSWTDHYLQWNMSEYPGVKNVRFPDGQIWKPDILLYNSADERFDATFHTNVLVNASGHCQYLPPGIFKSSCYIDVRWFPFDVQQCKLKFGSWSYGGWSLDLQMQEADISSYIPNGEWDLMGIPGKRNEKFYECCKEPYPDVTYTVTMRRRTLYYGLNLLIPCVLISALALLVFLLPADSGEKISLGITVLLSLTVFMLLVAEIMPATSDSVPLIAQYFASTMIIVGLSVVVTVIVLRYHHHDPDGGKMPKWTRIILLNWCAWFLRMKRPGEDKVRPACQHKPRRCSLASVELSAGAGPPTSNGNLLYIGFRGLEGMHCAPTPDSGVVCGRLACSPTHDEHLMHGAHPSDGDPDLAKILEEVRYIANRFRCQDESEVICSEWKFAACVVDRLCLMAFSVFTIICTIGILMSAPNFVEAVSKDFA
α7-nicotinic acetylcholine receptor, sequence (Q05941 23-502): as above
rat α3β4-nicotinic acetylcholine receptor, sequence (P04757 26-499): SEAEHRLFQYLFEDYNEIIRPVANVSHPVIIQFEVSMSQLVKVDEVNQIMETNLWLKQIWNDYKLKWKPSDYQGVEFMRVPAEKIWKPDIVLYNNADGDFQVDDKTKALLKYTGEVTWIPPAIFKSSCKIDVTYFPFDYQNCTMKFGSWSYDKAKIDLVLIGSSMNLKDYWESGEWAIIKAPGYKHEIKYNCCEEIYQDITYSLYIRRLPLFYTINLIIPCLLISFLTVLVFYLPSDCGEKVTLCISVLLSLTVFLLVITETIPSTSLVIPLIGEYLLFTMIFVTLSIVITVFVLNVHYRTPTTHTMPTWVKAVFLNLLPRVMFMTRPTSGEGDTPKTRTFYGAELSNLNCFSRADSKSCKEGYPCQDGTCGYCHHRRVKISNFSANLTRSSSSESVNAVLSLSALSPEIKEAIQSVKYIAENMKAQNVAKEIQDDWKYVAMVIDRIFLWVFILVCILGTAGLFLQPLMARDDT
rat α3β4-nicotinic acetylcholine receptor, sequence (P12392 21-495): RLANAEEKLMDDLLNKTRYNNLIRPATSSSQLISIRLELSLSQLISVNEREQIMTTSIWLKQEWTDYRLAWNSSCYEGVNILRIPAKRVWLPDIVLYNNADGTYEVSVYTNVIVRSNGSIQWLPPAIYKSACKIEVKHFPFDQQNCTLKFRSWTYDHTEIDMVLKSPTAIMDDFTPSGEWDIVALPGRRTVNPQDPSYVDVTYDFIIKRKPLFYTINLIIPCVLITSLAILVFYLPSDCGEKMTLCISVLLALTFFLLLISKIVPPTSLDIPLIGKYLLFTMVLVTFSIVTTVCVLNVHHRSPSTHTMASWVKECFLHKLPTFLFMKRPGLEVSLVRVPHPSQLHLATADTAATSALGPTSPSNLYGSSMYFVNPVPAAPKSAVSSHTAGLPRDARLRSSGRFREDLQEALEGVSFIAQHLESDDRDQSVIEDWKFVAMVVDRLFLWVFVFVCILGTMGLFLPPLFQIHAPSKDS
α4β2-nicotinic acetylcholine receptor, sequence (P43681 29-627 limits assumed): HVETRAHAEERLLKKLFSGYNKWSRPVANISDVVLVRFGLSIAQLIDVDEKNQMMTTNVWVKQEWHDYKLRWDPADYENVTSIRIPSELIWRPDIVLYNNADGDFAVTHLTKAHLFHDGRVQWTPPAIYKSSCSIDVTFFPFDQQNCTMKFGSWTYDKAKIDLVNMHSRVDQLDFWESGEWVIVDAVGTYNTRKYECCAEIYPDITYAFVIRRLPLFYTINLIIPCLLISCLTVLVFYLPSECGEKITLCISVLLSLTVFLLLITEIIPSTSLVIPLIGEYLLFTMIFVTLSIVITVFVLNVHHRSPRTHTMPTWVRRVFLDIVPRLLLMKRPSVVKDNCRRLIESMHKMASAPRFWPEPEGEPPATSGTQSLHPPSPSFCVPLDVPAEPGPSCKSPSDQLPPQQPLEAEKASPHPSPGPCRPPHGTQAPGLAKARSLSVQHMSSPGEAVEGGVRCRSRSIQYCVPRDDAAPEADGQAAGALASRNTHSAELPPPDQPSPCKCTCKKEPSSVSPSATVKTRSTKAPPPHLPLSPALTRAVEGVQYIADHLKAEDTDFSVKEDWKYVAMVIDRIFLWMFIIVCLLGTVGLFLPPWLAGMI
α4β2-nicotinic acetylcholine receptor, sequence (P17787 26-502 limits assumed): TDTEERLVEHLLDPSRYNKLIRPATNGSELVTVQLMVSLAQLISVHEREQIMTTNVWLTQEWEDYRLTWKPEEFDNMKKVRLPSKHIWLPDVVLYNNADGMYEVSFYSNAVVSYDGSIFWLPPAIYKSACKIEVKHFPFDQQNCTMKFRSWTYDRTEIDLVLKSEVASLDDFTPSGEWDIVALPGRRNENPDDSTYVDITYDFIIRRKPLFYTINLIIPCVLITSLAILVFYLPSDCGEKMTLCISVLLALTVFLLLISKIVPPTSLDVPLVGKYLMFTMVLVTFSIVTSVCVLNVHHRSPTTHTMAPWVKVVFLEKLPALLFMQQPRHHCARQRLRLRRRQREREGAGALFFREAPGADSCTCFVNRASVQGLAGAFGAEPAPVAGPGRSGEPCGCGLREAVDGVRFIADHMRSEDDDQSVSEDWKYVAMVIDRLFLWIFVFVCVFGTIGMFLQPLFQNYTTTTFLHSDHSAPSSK

| SMILES | IC50 [1] [µM] | Displacement of [3H]-epibatidine [4] | Displacement of [125I]-α-bungarotoxin [4] | Mean current evoked by 280 μM acetylcholine, normalized to acetylcholine alone [2] | Ki (NMDA receptor) | further results |
| --- | --- | --- | --- | --- | --- | --- |
| CNC1(c2ccccc2Cl)CCCCC1=O (racemic) [(R,S)-Ketamine, reference compound] | 3.1 | – | – | – | – | Effect on acetylcholine-induced current [2]: inactive; also recorded: no observable effect; Patients reporting a positive response [3]: 41%; Response rate [3]: 30% |
| NC1(c2ccccc2Cl)CCC=CC1=O (racemic) [(R,S)-dehydronorketamine] | > 200 | did not competitively displace | did not competitively displace | 0.407 and 0.205 | – | Effect on acetylcholine-evoked currents [5]: no effect; Current activation (agonist effect) [2]: No measurable effect; Hill coefficient nH [2]: 0.66 ± 0.05; Inhibition of acetylcholine-induced current [2]: ~ 60%; Voltage dependence of the inhibitory effect [2]: voltage-independent; Inhibition of ACh-induced whole-cell current ([2]; 0.03 µM): 45%; IC50 ([2]; read-out: IC50, inhibition of acetylcholine-evoked current): 0.055 ± 0.006 µM |
| NC1(c2ccccc2Cl)CCCCC1=O (racemic) [(R,S)-norketamine] | 9.1 | – | – | – | – | Inhibition of acetylcholine-induced current ([2]; 100 nM compound, 280 μM acetylcholine): ~ 45%; Mean current evoked by 280 μM acetylcholine, normalized to acetylcholine alone ([2]; 100 nM compound, −80 mV, n = 4, fraction of current remaining): 0.548; Mean current evoked by 280 μM acetylcholine, normalized to acetylcholine alone ([2]; 1000 nM compound, −80 mV, n = 4, fraction of current remaining): 0.287 |
| N[C@@]1(c2ccccc2Cl)CCC[C@@H](O)C1=O [(2R,6R)-hydroxynorketamine] | > 200 | – | – | 0.354 and 0.489 | > 100 µM | – |
| N[C@]1(c2ccccc2Cl)CCC[C@H](O)C1=O [(2S,6S)-hydroxynorketamine] | > 200 | – | – | 0.461 and 0.361 | 21 µM and 21.2 µM | – |
| N[C@@]1(c2ccccc2Cl)CCC=CC1=O [(R)-Dedhydronorketamine, (R)-dehydronorketamine] | – | not displaced | did not displace | – | 74.5 µM | – |
| N[C@@]1(c2ccccc2Cl)CCCCC1=O [(R)-norKetamine, (R)-norketamine] | – | – | – | – | 26.5 µM | – |
| N[C@]1(c2ccccc2Cl)CCC=CC1=O [(S)-Dehydronorketamine, (S)-dehydronorketamine] | – | not displaced | did not displace | – | 39 µM | – |
| N[C@]1(c2ccccc2Cl)CCCCC1=O [(S)-norKetamine, (S)-norketamine] | – | – | – | – | 2.25 ± 0.22 µM | – |
